According to ChEMBL document CHEMBL1833945, “Synthesis and anticonvulsant activity of new N-Mannich bases derived from 5-cyclopropyl-5-phenyl- and 5-cyclopropyl-5-(4-chlorophenyl)-imidazolidine-2,4-diones” (Bioorg Med Chem, 2011):
Activity calls are given as the source filed them. The rule behind the calls is not given here.

What was measured:
Mus musculus [1] = assay: Anticonvulsant activity in ip dosed CF1 albino mouse assessed as protection against maximal electroshock-induced seizures after 4 hrs; format: functional; conditions: read-out: MED
Mus musculus [2] = assay: Anticonvulsant activity in ip dosed CF1 albino mouse assessed as protection against subcutaneous pentylenetetrazole-induced seizures after 0.5 hrs; format: functional; conditions: read-out: MED
Mus musculus [3] = assay: Anticonvulsant activity in ip dosed CF1 albino mouse assessed as protection against maximal electroshock-induced seizures after 0.5 hrs; format: functional; conditions: read-out: MED
[4] = Lipophilicity, log P of compound; format: physicochemical; conditions: octanol/water
Mus musculus [5] = assay: Neurotoxicity in CF1 albino mouse assessed as loss of rotard grasping at 300 mg/kg, ip after 4 hrs by rotarod test; format: toxicity, organism-based; design: dose 300 mg/kg, route intraperitoneal; conditions: in vivo
Mus musculus [6] = assay: Neurotoxicity in CF1 albino mouse assessed as loss of rotard grasping at 300 mg/kg, ip after 0.5 hrs by rotarod test; format: toxicity, organism-based; design: dose 300 mg/kg, route intraperitoneal; conditions: in vivo
Mus musculus [7] = assay: Neurotoxicity in CF1 albino mouse assessed as tremors at 300 mg/kg, ip after 0.5 hrs by rotarod test; format: toxicity, organism-based; design: dose 300 mg/kg, route intraperitoneal; conditions: in vivo
Mus musculus [8] = assay: Anticonvulsant activity in ip dosed CF1 albino mouse assessed as protection against subcutaneous pentylenetetrazole-induced seizures after 4 hrs; format: functional; conditions: read-out: MED
Rattus norvegicus [9] = assay: Anticonvulsant activity in po dosed Sprague-Dawley albino rat assessed as time to peak effect; format: functional
Rattus norvegicus [10] = assay: Neurotoxicity in Sprague-Dawley albino rat assessed as motor impairment at 30 mg/kg, po after 0.25 hrs by rotarod test; format: toxicity, organism-based; design: dose 30 mg/kg, route oral; conditions: in vivo
Rattus norvegicus [11] = assay: Anticonvulsant activity in Sprague-Dawley albino rat assessed as protection against subcutaneous pentylenetetrazole-induced seizures at 50 mg/kg, po after 2 hrs; format: functional, organism-based; design: dose 50 mg/kg
Rattus norvegicus [12] = assay: Neurotoxicity in Sprague-Dawley albino rat assessed as motor impairment at 30 mg/kg, po after 2 hrs by rotarod test; format: toxicity, organism-based; design: dose 30 mg/kg, route oral; conditions: in vivo
Rattus norvegicus [13] = species: Rattus norvegicus; assay: Protective index, ratio of TD50 for neurotoxicity in Sprague-Dawley albino rat to ED50 for inhibition of maximal electroshock-induced seizures in Sprague-Dawley albino rat; format: functional
Rattus norvegicus [14] = assay: Neurotoxicity in Sprague-Dawley albino rat assessed as motor impairment at 50 mg/kg, po after 1 hrs by rotarod test; format: toxicity, organism-based; design: dose 50 mg/kg, route oral; conditions: in vivo
Rattus norvegicus [15] = assay: Neurotoxicity in Sprague-Dawley albino rat assessed as motor impairment at 50 mg/kg, po after 2 hrs by rotarod test; format: toxicity, organism-based; design: dose 50 mg/kg, route oral; conditions: in vivo
Rattus norvegicus [16] = assay: Anticonvulsant activity in po dosed Sprague-Dawley albino rat assessed as protection against maximal electroshock-induced seizures; format: functional
[17] = Neurotoxicity in oral dosed Sprague-Dawley albino rat assessed as motor impairment by rotarod test; format: toxicity, organism-based; conditions: in vivo
Rattus norvegicus [18] = assay: Neurotoxicity in Sprague-Dawley albino rat assessed as motor impairment at 50 mg/kg, po after 0.25 hrs by rotarod test; format: toxicity, organism-based; design: dose 50 mg/kg, route oral; conditions: in vivo
Rattus norvegicus [19] = assay: Neurotoxicity in Sprague-Dawley albino rat assessed as motor impairment at 30 mg/kg, po after 4 hrs by rotarod test; format: toxicity, organism-based; design: dose 30 mg/kg, route oral; conditions: in vivo
Rattus norvegicus [20] = assay: Neurotoxicity in Sprague-Dawley albino rat assessed as motor impairment at 50 mg/kg, po after 0.5 hrs by rotarod test; format: toxicity, organism-based; design: dose 50 mg/kg, route oral; conditions: in vivo
Rattus norvegicus [21] = assay: Neurotoxicity in Sprague-Dawley albino rat assessed as motor impairment at 30 mg/kg, po after 0.5 hrs by rotarod test; format: toxicity, organism-based; design: dose 30 mg/kg, route oral; conditions: in vivo
Rattus norvegicus [22] = assay: Anticonvulsant activity in Sprague-Dawley albino rat assessed as protection against subcutaneous pentylenetetrazole-induced seizures at 50 mg/kg, po after 0.5 hrs; format: functional, organism-based; design: dose 50 mg/kg
Rattus norvegicus [23] = assay: Anticonvulsant activity in Sprague-Dawley albino rat assessed as protection against subcutaneous pentylenetetrazole-induced seizures at 50 mg/kg, po after 0.25 hrs; format: functional, organism-based; design: dose 50 mg/kg
Rattus norvegicus [24] = assay: Anticonvulsant activity in Sprague-Dawley albino rat assessed as protection against subcutaneous pentylenetetrazole-induced seizures at 50 mg/kg, po after 1 hrs; format: functional, organism-based; design: dose 50 mg/kg
Rattus norvegicus [25] = assay: Neurotoxicity in Sprague-Dawley albino rat assessed as motor impairment at 30 mg/kg, po after 1 hrs by rotarod test; format: toxicity, organism-based; design: dose 30 mg/kg, route oral; conditions: in vivo
Mus musculus [26] = assay: Neurotoxicity in CF1 albino mouse assessed as minimum dose causing loss of righting reflex at 300 mg/kg, ip after 4 hrs by rotarod test; format: toxicity, organism-based; design: dose 300 mg/kg, route intraperitoneal; conditions: in vivo
Rattus norvegicus [27] = assay: Neurotoxicity in Sprague-Dawley albino rat assessed as motor impairment at 50 mg/kg, po after 4 hrs by rotarod test; format: toxicity, organism-based; design: dose 50 mg/kg, route oral; conditions: in vivo
[28] = Neurotoxicity in ip dosed CF1 albino mouse assessed as impair in motor coordination by rotarod test; format: toxicity, organism-based; conditions: in vivo
Mus musculus [29] = assay: Anticonvulsant activity in CF1 albino mouse assessed as time to peak effect at 100 mg/kg, ip; format: functional; conditions: route intraperitoneal
Mus musculus [30] = assay: Neurotoxicity in ip dosed CF1 albino mouse assessed as minimum dose required to cause impair in motor coordination after 4 hrs by rotarod test; format: toxicity, organism-based; conditions: in vivo
Mus musculus [31] = assay: Toxicity in subcutaneous pentylenetetrazole-induced CF1 albino mouse assessed as myoclonic jerks at 100 mg/kg, ip after 4 hrs; format: organism-based; design: dose 100 mg/kg; conditions: in vivo, sc
Mus musculus [32] = assay: Neurotoxicity in ip dosed CF1 albino mouse assessed as minimum dose required to cause impair in motor coordination after 0.5 hrs by rotarod test; format: toxicity, organism-based; conditions: in vivo
Mus musculus [33] = assay: Toxicity in subcutaneous pentylenetetrazole-induced CF1 albino mouse assessed as myoclonic jerks at 300 mg/kg, ip after 0.5 hrs; format: organism-based; design: dose 300 mg/kg; conditions: in vivo, sc
Rattus norvegicus [34] = species: Rattus norvegicus
Description: Protective index, ratio of TD50 for neurotoxicity in Sprague-Dawley albino rat to ED50 for inhibition of subcutaneous pentylenetetrazole-induced seizures in Sprague-Dawley albino rat

Mus musculus [35] = assay: Neurotoxicity in CF1 albino mouse assessed as impair in motor coordination at 300 mg/kg, ip after 4 hrs by rotarod test; format: toxicity, organism-based; design: dose 300 mg/kg, route intraperitoneal; conditions: in vivo
Mus musculus [36] = assay: Neurotoxicity in CF1 albino mouse assessed as impair in motor coordination at 300 mg/kg, ip after 0.5 hrs by rotarod test; format: toxicity, organism-based; design: dose 300 mg/kg, route intraperitoneal; conditions: in vivo
Rattus norvegicus [37] = assay: Anticonvulsant activity in Sprague-Dawley albino rat assessed as protection against subcutaneous pentylenetetrazole-induced seizures at 50 mg/kg, po after 4 hrs; format: functional, organism-based; design: dose 50 mg/kg
Mus musculus [38] = assay: Anticonvulsant activity in CF1 albino mouse assessed as protection against maximal electroshock-induced seizures at 300 mg/kg, ip after 4 hrs; format: functional, organism-based; design: dose 300 mg/kg
Mus musculus [39] = assay: Anticonvulsant activity in CF1 albino mouse assessed as protection against maximal electroshock-induced seizures at 300 mg/kg, ip after 0.5 hrs; format: functional, organism-based; design: dose 300 mg/kg

CCOC(=O)N1CCN(CN2C(=O)NC(c3ccccc3)(C3CC3)C2=O)CC1 (centres undefined)
minimal effective dose (Mus musculus [1]): 100 mg/kg | minimal effective dose (Mus musculus [2]): 100 mg/kg | minimal effective dose (Mus musculus [3]): 100 mg/kg | logP [4]: 1.76 | Activity (Mus musculus [5]): Toxic | Activity (Mus musculus [6]): Toxic | Activity (Mus musculus [7]): Toxic | minimal effective dose (Mus musculus [8]): 300 mg/kg

O=C1NC(c2ccccc2)(C2CC2)C(=O)N1CN1CCOCC1 (centres undefined)
minimal effective dose (Mus musculus [1]): 30 mg/kg | Time (Rattus norvegicus [9]): 4 h | Activity (Rattus norvegicus [10]): Non-toxic | Activity (Rattus norvegicus [11]): Active | minimal effective dose (Mus musculus [2]): 30 mg/kg | minimal effective dose (Mus musculus [3]): 100 mg/kg | Activity (Rattus norvegicus [12]): Non-toxic | PI (Rattus norvegicus [13]): <10.79 | Activity (Rattus norvegicus [14]): Non-toxic | Activity (Rattus norvegicus [15]): Non-toxic | ED50 (Rattus norvegicus [16]): 13.9 mg/kg | TD50 [17]: < 150 mg/kg | Activity (Rattus norvegicus [18]): Non-toxic | logP [4]: 1.33 | Activity (Rattus norvegicus [19]): Non-toxic | Activity (Rattus norvegicus [20]): Non-toxic | Activity (Rattus norvegicus [21]): Non-toxic | Activity (Rattus norvegicus [22]): inactive | Activity (Rattus norvegicus [23]): inactive | Activity (Rattus norvegicus [24]): inactive | Activity (Mus musculus [6]): Toxic | Activity (Rattus norvegicus [25]): Non-toxic | Activity (Mus musculus [26]): Toxic | Activity (Rattus norvegicus [27]): Non-toxic | minimal effective dose (Mus musculus [8]): 300 mg/kg

CC[C@@H](C(N)=O)N1CCCC1=O
TD50 [28]: > 500 mg/kg | Time (Mus musculus [29]): 1 h

O=C1NC(c2ccc(Cl)cc2)(C2CC2)C(=O)N1CN1CCN(CCc2ccccc2)CC1 (centres undefined)
minimal effective dose (Mus musculus [1]): 300 mg/kg | minimal effective dose (Mus musculus [3]): 300 mg/kg | MTC (Mus musculus [30]): 30 mg/kg | Activity (Mus musculus [31]): Toxic | logP [4]: 3.97 | MTC (Mus musculus [32]): 30 mg/kg | Activity (Mus musculus [33]): Toxic

CCC1(C)CC(=O)NC1=O (centres undefined) [ETHOSUXIMIDE]
Time (Rattus norvegicus [9]): 2 h | minimal effective dose (Mus musculus [2]): 100 mg/kg | Activity (Rattus norvegicus [14]): Non-toxic | PI (Rattus norvegicus [34]): >3 | Activity (Rattus norvegicus [15]): Non-toxic | ED50 (Rattus norvegicus [16]): > 500 mg/kg | Activity (Mus musculus [35]): Non-toxic | TD50 [17]: > 500 mg/kg | Activity (Rattus norvegicus [18]): Non-toxic | Activity (Rattus norvegicus [20]): Non-toxic | Activity (Mus musculus [36]): Non-toxic | Activity (Rattus norvegicus [23]): inactive | Activity (Rattus norvegicus [37]): inactive | Activity (Mus musculus [38]): inactive | Activity (Rattus norvegicus [27]): Non-toxic | Activity (Mus musculus [39]): inactive | minimal effective dose (Mus musculus [8]): 300 mg/kg
